How the values were obtained:
Assay type in all cases: cell-based
[1] = test system: apoE expression in human CCF-STTG1 astrocytoma cells; assay: ApoE ELISA on conditioned medium of human CCF-STTG1 astrocytoma cells; details: 10 μM compound, 24 hours; for ApoE (ng/ml) Normalized for Cell Count and Vehicle Treatment: normalized to DMSO treated cells
Experimental: The triarylmethyl amine compounds, including the ones shown in TABLE 1, were tested for biological effects on mammalian cells in an ELISA, an assay well-known in the art. […] The ELISA technique involves immobilizing an apoE-specific capture antibody to a 96-well plate, addition of sample (conditioned medium from astrocytoma cells treated with the compound for 24 hours), and detection of the bound apoE using a second apoE-specific biotinylated antibody and streptavidin-HRP.
The Mabtech ELISA kit detects the presence of three apoE isoforms: apoE2, apoE3, and apoE4.
All triarylmethyl amine compounds listed in Table 1 were individually dissolved in DMSO at a stock concentration of 10 mM and individually tested. For ELISA's, 1.6×10^4 cells/96-well were grown for 1 day in RPMI, followed by a 24 hour equilibration in serum-free Opti-MEM (Life Technologies). Treatments were carried out in quadruplicate with 100 μL of fresh Opti-MEM containing 10 μM of compound or vehicle (0.1% DMSO) for 24 hours. Conditioned medium from these samples were then diluted 2-fold with incubation buffer (PBS+0.05% Tween-20+0.1% BSA) and analyzed with a human apoE HRP ELISA kit (Mabtech) according to the manufacturer's protocol. ApoE concentration in the sample was calculated based on a standard curve derived using known amounts of purified apoE supplied with the kit. The cells in the 96-well plates were used to determine the total cell number using CyQUANT reagent (Life Technologies).
The astrocytoma cells were treated for 24 hours with a 10 μM concentration of each of the individual 37 compounds listed in Table 1.

[2] = test system: apoE mRNA in HepG2 human liver cells; assay: ApoE mRNA qPCR in HepG2 liver cells; details: 24 hours in OptiMEM, HPRT1 and β-actin as housekeeping genes
Source text: (§1) Quantitative reverse transcription polymerase chain reaction (qPCR) is a laboratory technique used to amplify and quantify the steady-state levels of apoE messenger RNA (mRNA) by converting the copy DNA (cDNA). The targeted DNA molecule quantity can be determined as a relative amount when normalized to housekeeping genes. For qPCR, reverse transcription is used to quantify the amount of mRNA produced through the balance between transcription rate and degradation rates. The amount of mRNA available is the one factor which can affect the overall protein expression. Quantification of the cDNA produced during reverse transcription of the mRNA may be accomplished by detecting the fluorescent markers, such as fluorophores, that selectively hybridize with the DNA target.
(§2) The HepG2 (ATCC, HB-8065) human liver cells were treated with one of the selected triarylmethyl amine compounds for 24 hours in OptiMEM. The selected triarylmethyl amine compounds were individually dissolved in DMSO at a stock concentration of 10 mM and individually tested. Total RNA was extracted using the RNeasy Plus Mini Kit (Qiagen). Genomic DNA (gDNA) was removed by centrifugation through gDNA eliminator spin columns included with the kit. Samples of total RNA were reverse transcribed following instructions in the Superscript III first strand synthesis kit (Life Technologies). ApoE, HPRT1, and β-actin cDNA levels were quantified by TaqMan multiplex quantitative PCR using a CFX96 Real-Time PCR Detection System (BioRad). Reactions were carried out with SensiMix II Probe Master Mix (Bioline) in a 20 μl total volume containing 5-30 ng of cDNA template. Fluorescent labels and primer/probe concentrations were as follows: apoE (5′-FAM, 600 nM/300 nM), HPRT1 (5′-TEX-615, 100 nM/25 nM), and β-actin (5′-Cy5, 100 nM/25 nM). ZEN double quenched probes (Integrated DNA technologies) were used for all apoE reactions. The reactions were performed in triplicate and the results were analyzed using qbasePLUS (Biogazelle) with HPRT1 and β-actin as housekeeping genes.

[3] = test system: apoE mRNA in CCF-STTG1 human astrocytoma cells; assay: ApoE mRNA qPCR in CCF-STTG1 astrocytoma cells; set-up: unit not given here; details: 24 hours in OptiMEM, HPRT1 and β-actin as housekeeping genes
Source text: as §1
as §2, with “CCF-STTG1” for “HepG2”, “CRL-1718)” for “HB-8065)”, “astrocytoma” for “liver”, “μL” for “μl”

[4] = test system: apoE expression in human HepG2 liver cells; assay: ApoE ELISA on conditioned medium of human HepG2 liver cells; details: 10 μM compound, 24 hours, normalized to DMSO treated wells
Experimental: To obtain the data shown in Table 4, the human HepG2 liver cells (ATCC, HB-8065 were maintained in RPMI medium (Mediatech) supplemented with 10 mM HEPES, 1 mM sodium pyruvate, 4.5 g/L glucose, 1% penicillin/streptomycin, and 10% bovine growth serum (HyClone) at 37° C. with 5% CO2
Compound Nos. 13, 31, 33, 35 or 36—as listed in Table 1—were individually dissolved in DMSO at a stock concentration of 10 mM and individually tested. For ELISA's, 1.6×10^4 cells/96-well were grown for 1 day in RPMI, followed by a 24 hour equilibration in serum-free Opti-MEM (Life Technologies). Treatments were carried out in quadruplicate with 100 μL of fresh Opti-MEM containing 10 μM of compound or vehicle (0.1% DMSO) for 24 hours. Conditioned medium from these samples were then diluted 2-fold with incubation buffer (PBS+0.05% Tween-20+0.1% BSA) and analyzed with a human apoE HRP ELISA kit (Mabtech) according to the manufacturer's protocol.
A standard curve was used to derive sample apoE concentrations. The cells in the 96-well plates were used to determine the total cell number using CyQUANT reagent (Life Technologies). Sample apoE concentrations were adjusted for total cell number and then normalized to DMSO treated wells. Results for each set of compounds tested in parallel (n=3) were analyzed by a one-tailed t-test.
The data in Table 3 were obtained by using an apoE ELISA assay to monitor human HepG2 cell production of apoE after the HepG2 cells were treated with Compound Nos. 13, 31, 33, 35 and 36, as listed on Table 1. The HepG2 liver cells were treated for 24 hours with a 10 μM concentration of each of Compound Nos. 13, 31, 33, 35 and 36, as listed on Table 1.

[5] = test system: apoE mRNA in H4 human neuroglioma cells; assay: ApoE mRNA qPCR in H4 neuroglioma cells; set-up: unit not given here; details: 24 hours in OptiMEM, HPRT1 and β-actin as housekeeping genes
Source text: as §1
The selected triarylmethyl amine compounds were individually dissolved in DMSO at a stock concentration of 10 mM and individually tested. Total RNA was extracted using the RNeasy Plus Mini Kit (Qiagen). Genomic DNA (gDNA) was removed by centrifugation through gDNA eliminator spin columns included with the kit. Samples of total RNA were reverse transcribed following instructions in the Superscript III first strand synthesis kit (Life Technologies). ApoE, HPRT1, and β-actin cDNA levels were quantified by TaqMan multiplex quantitative PCR using a CFX96 Real-Time PCR Detection System (BioRad).

| Compound | Inhibition Percentage of ApoE Expression [1] [%] | ApoE (ng/ml) Normalized for Cell Count and Vehicle Treatment [1] [ng/mL] | ApoE (ng/ml) Normalized for Cell Count and Vehicle Treatment [2] | ApoE (ng/ml) Normalized for Cell Count and Vehicle Treatment [3] | ApoE (ng/ml) Normalized for Cell Count and Vehicle Treatment [4] [ng/mL] | Inhibition Percentage of ApoE Expression ([1]; listed as compound 31) | Inhibition Percentage of ApoE Expression ([1]; listed as compound 33) | ApoE (ng/ml) Cell Count Normalized for Cell Count and Vehicle Treatment [5] | Inhibition Percentage of ApoE Expression ([1]; listed as compound 35) | Inhibition Percentage of ApoE Expression ([1]; listed as compound 36) |
| --- | --- | --- | --- | --- | --- | --- | --- | --- | --- | --- |
| CN(C)C(c1ccccc1)(c1ccccc1)c1ccccc1 [Compound 1] | 8 | 0.92 |  |  |  |  |  |  |  |  |
| c1ccc(C(NCC2CCCCC2)(c2ccccc2)c2ccccc2)cc1 [Compound 13, cyclohexylmethyl-trityl-amine] |  | 0.49 | 1.16 ratio to vehicle | 1.10 | 1.03 |  |  |  |  |  |
| COc1ccc(C(c2ccccc2)(c2ccccc2)N(C)C)cc1 [Compound 16] | 35 | 0.65 |  |  |  |  |  |  |  |  |
| CCN(CC)C(c1ccccc1)(c1ccccc1)c1ccc(OC)cc1 [Compound 17, Diethyl-[(4-methoxy-phenyl)-diphenyl-methyl]-amine] | 17 | 0.83 |  |  |  |  |  |  |  |  |
| CN(C)C(c1ccccc1)(c1ccccc1)c1ccc2ccccc2c1 [Compound 28] | 35 | 0.65 |  |  |  |  |  |  |  |  |
| c1ccc(C(c2ccccc2)(c2ccc3ccccc3c2)N2CCCC2)cc1 [Compound 31, 1-(naphthalen-2-yl-diphenyl-methyl)-pyrrolidine] | 49 | 0.51 | 0.86 ratio to vehicle | 0.86 | 0.64 | about 49% |  |  |  |  |
| c1ccc(C(c2ccccc2)(c2ccc3ccccc3c2)N2CCOCC2)cc1 [Compound 33, 4-(Naphthalen-2-yl-diphenyl-methyl)-morpholine] | 46 | 0.54 | 1.22 ratio to vehicle | 0.88 | 0.77 |  | about 46% | 0.59 |  |  |
| CC(C)CNC(c1ccccc1)(c1ccccc1)c1ccc2ccccc2c1 [Compound 35, isobutyl-(naphthalen-2-yl-diphenyl-methyl)-amine] | 50 | 0.50 | 1.03 ratio to vehicle | 0.87 | 0.78 |  |  |  | about 50% |  |
| CCC(C)NC(c1ccccc1)(c1ccccc1)c1ccc2ccccc2c1 (stereo not shown) [Compound 36, sec-butyl-(naphthalen-2-yl-diphenyl-methyl)-amine] | 66 | 0.34 | 0.93 ratio to vehicle | 0.85 | 0.81 |  |  |  |  | about 66% |

Reference: patent US8633195B1, “Method of inhibiting apolipoprotein-E expression comprising administering a triarylmethyl amine compound” (Fresno California State University, priority 2012, dated 2014)
